In brackets after ≈: the same amount, converted by molar mass. Where two headings read alike, the source gives them in different places.
Assays:
Acinetobacter baumannii = experiment: MIC/MBC against clinical isolates (CLSI, alamar blue); settings: Acinetobacter baumannii
[1] = tested on: Stenotrophomonas maltophilia; experiment: MIC/MBC against CF isolates (CLSI, alamar blue); settings: Stenotrophomonas maltophilia
Burkholderia cenocepacia = experiment: MIC/MBC against CF isolates (CLSI, alamar blue); settings: Burkholderia cenocepacia
Pseudomonas aeruginosa = experiment: MIC/MBC against CF isolates (CLSI, alamar blue)
[2] = CF Stenotrophomonas isolate NB41
[3] = CF Stenotrophomonas isolate NB42
[4] = CF Stenotrophomonas isolate NB43
[5] = CF Stenotrophomonas isolate NB44
[6] = CF Stenotrophomonas isolate NB45
[7] = CF Stenotrophomonas isolate Steno 1
[8] = CF Stenotrophomonas isolate Steno 2
[9] = CF Stenotrophomonas isolate Steno 3
[10] = CF Stenotrophomonas isolate Steno 4
[11] = CF Stenotrophomonas isolate Steno 6
[12] = CF Stenotrophomonas isolate Steno 8
[13] = Pseudomonas aeruginosa, CF Pseudomonas isolate NB1
[14] = Pseudomonas aeruginosa, CF Pseudomonas isolate NB2
[15] = Pseudomonas aeruginosa, CF Pseudomonas isolate NB3
[16] = Pseudomonas aeruginosa, CF Pseudomonas isolate NB4
[17] = Pseudomonas aeruginosa, CF Pseudomonas isolate NB5
[18] = Pseudomonas aeruginosa, CF Pseudomonas isolate NB6
[19] = Pseudomonas aeruginosa, CF Pseudomonas isolate NB7
[20] = Pseudomonas aeruginosa, CF Pseudomonas isolate NB8
[21] = Pseudomonas aeruginosa, CF Pseudomonas isolate NB9
[22] = Pseudomonas aeruginosa, CF Pseudomonas isolate NB10
[23] = Pseudomonas aeruginosa, CF Pseudomonas isolate NB11
[24] = Pseudomonas aeruginosa, CF Pseudomonas isolate NB12
[25] = Pseudomonas aeruginosa, CF Pseudomonas isolate NB13
[26] = Pseudomonas aeruginosa, CF Pseudomonas isolate NB14
[27] = Pseudomonas aeruginosa, CF Pseudomonas isolate NB15
[28] = Pseudomonas aeruginosa, CF Pseudomonas isolate NB16
[29] = Pseudomonas aeruginosa, CF Pseudomonas isolate NB17
[30] = Pseudomonas aeruginosa, CF Pseudomonas isolate NB18
[31] = Pseudomonas aeruginosa, CF Pseudomonas isolate NB19
[32] = Pseudomonas aeruginosa, CF Pseudomonas isolate NB20

Work on `CO[C@@]1(NC(=O)Cc2cccs2)C(=O)N2C(C(=O)O)=C(COC(N)=O)CS[C@@H]21` [Cefoxitin] yielded an MIC50 (Acinetobacter baumannii) of over 256 µg/mL, an MIC90 (Acinetobacter baumannii) of over 256 µg/mL and an MBC (Acinetobacter baumannii; Acinetobacter isolate NB31) of over 256 µg/mL. It also gave an MIC (Acinetobacter baumannii; Acinetobacter isolate NB31) of over 256 µg/mL, an MBC (Acinetobacter baumannii; Acinetobacter isolate NB32) of 256 µg/mL (≈ 599 µM) and an MIC (Acinetobacter baumannii; Acinetobacter isolate NB32) of 256 µg/mL (≈ 599 µM). It also gave an MBC (Acinetobacter baumannii; Acinetobacter isolate NB33) of over 256 µg/mL, an MIC (Acinetobacter baumannii; Acinetobacter isolate NB33) of over 256 µg/mL and an MBC (Acinetobacter baumannii; Acinetobacter isolate NB34) of over 256 µg/mL. For the same compound, the MIC (Acinetobacter baumannii; Acinetobacter isolate NB34) was over 256 µg/mL, the MBC (Acinetobacter baumannii; Acinetobacter isolate NB35) was over 256 µg/mL and the MIC (Acinetobacter baumannii; Acinetobacter isolate NB35) was over 256 µg/mL. It also gave an MBC (Acinetobacter baumannii; Acinetobacter isolate NB36) of 128 µg/mL (≈ 299 µM), an MIC (Acinetobacter baumannii; Acinetobacter isolate NB36) of 128 µg/mL (≈ 299 µM) and an MBC (Acinetobacter baumannii; Acinetobacter isolate NB37) of over 256 µg/mL. It also gave an MIC (Acinetobacter baumannii; Acinetobacter isolate NB37) of over 256 µg/mL, an MBC (Acinetobacter baumannii; Acinetobacter isolate NB38) of over 256 µg/mL and an MIC (Acinetobacter baumannii; Acinetobacter isolate NB38) of over 256 µg/mL. For the same compound, the MBC (Acinetobacter baumannii; Acinetobacter isolate NB39) was over 256 µg/mL, the MIC (Acinetobacter baumannii; Acinetobacter isolate NB39) was over 256 µg/mL and the MBC (Acinetobacter baumannii; Acinetobacter isolate NB40) was over 256 µg/mL. It also gave an MIC (Acinetobacter baumannii; Acinetobacter isolate NB40) of over 256 µg/mL, an MBC (Acinetobacter baumannii; read-out: MBC 50, 10 Acinetobacter isolates) of over 256 µg/mL and an MIC50 [1] of over 256 µg/mL. It also gave an MIC90 [1] of over 256 µg/mL, an MBC [1, 2] of over 256 µg/mL and an MIC [1, 2] of over 256 µg/mL. For the same compound, the MBC [1, 3] was over 256 µg/mL, the MIC [1, 3] was over 256 µg/mL and the MBC [1, 4] was over 256 µg/mL. For the same compound, the MIC [1, 4] was over 256 µg/mL, the MBC [1, 5] was over 256 µg/mL and the MIC [1, 5] was 256 µg/mL (≈ 599 µM). It also gave an MBC [1, 6] of over 256 µg/mL, an MIC [1, 6] of over 256 µg/mL and an MBC [1, 7] of over 256 µg/mL. The MIC [1, 7] was over 256 µg/mL, the MBC [1, 8] was over 256 µg/mL and the MIC [1, 8] was over 256 µg/mL. It also gave an MBC [1, 9] of over 256 µg/mL, an MIC [1, 9] of 256 µg/mL (≈ 599 µM) and an MBC [1, 10] of 256 µg/mL (≈ 599 µM). For the same compound, the MIC [1, 10] was 256 µg/mL (≈ 599 µM), the MBC [1, 11] was 256 µg/mL (≈ 599 µM) and the MIC [1, 11] was 128 µg/mL (≈ 299 µM). It also gave an MBC [1, 12] of over 256 µg/mL, an MIC [1, 12] of over 256 µg/mL and an MBC ([1]; read-out: MBC 50, 11 CF Stenotrophomonas isolates) of over 256 µg/mL. For the same compound, the MIC90 (Burkholderia cenocepacia) was 256 µg/mL (≈ 599 µM), the MIC50 (Burkholderia cenocepacia; 10 CF Burkholderia isolates) was 128 µg/mL (≈ 299 µM) and the MBC (Burkholderia cenocepacia; CF Burkholderia isolate NB21) was over 256 µg/mL. It also gave an MIC (Burkholderia cenocepacia; CF Burkholderia isolate NB21) of 256 µg/mL (≈ 599 µM), an MBC (Burkholderia cenocepacia; CF Burkholderia isolate NB22) of 256 µg/mL (≈ 599 µM) and an MIC (Burkholderia cenocepacia; CF Burkholderia isolate NB22) of 128 µg/mL (≈ 299 µM). It also gave an MBC (Burkholderia cenocepacia; CF Burkholderia isolate NB23) of over 256 µg/mL, an MIC (Burkholderia cenocepacia; CF Burkholderia isolate NB23) of over 256 µg/mL and an MBC (Burkholderia cenocepacia; CF Burkholderia isolate NB24) of over 256 µg/mL. For the same compound, the MIC (Burkholderia cenocepacia; CF Burkholderia isolate NB24) was 128 µg/mL (≈ 299 µM), the MBC (Burkholderia cenocepacia; CF Burkholderia isolate NB25) was 256 µg/mL (≈ 599 µM) and the MIC (Burkholderia cenocepacia; CF Burkholderia isolate NB25) was 128 µg/mL (≈ 299 µM). The MBC (Burkholderia cenocepacia; CF Burkholderia isolate NB26) was 256 µg/mL (≈ 599 µM), the MIC (Burkholderia cenocepacia; CF Burkholderia isolate NB26) was 128 µg/mL (≈ 299 µM) and the MBC (Burkholderia cenocepacia; CF Burkholderia isolate NB27) was over 256 µg/mL. It also gave an MIC (Burkholderia cenocepacia; CF Burkholderia isolate NB27) of 128 µg/mL (≈ 299 µM), an MBC (Burkholderia cenocepacia; CF Burkholderia isolate NB28b) of 16 µg/mL (≈ 37.4 µM) and an MIC (Burkholderia cenocepacia; CF Burkholderia isolate NB28b) of 16 µg/mL (≈ 37.4 µM). It also gave an MBC (Burkholderia cenocepacia; CF Burkholderia isolate NB29) of over 256 µg/mL, an MIC (Burkholderia cenocepacia; CF Burkholderia isolate NB29) of 256 µg/mL (≈ 599 µM) and an MBC (Burkholderia cenocepacia; CF Burkholderia isolate NB30) of 128 µg/mL (≈ 299 µM). For the same compound, the MIC (Burkholderia cenocepacia; CF Burkholderia isolate NB30) was 128 µg/mL (≈ 299 µM), the “MBC 90” value (Pseudomonas aeruginosa; 20 CF Pseudomonas isolates) was over 256 µg/mL and the MIC50 (Pseudomonas aeruginosa; Pseudomonas aeruginosa) was over 256 µg/mL. For the same compound, the MIC90 (Pseudomonas aeruginosa; Pseudomonas aeruginosa) was over 256 µg/mL, the MBC (Pseudomonas aeruginosa; [13]) was over 256 µg/mL and the MIC (Pseudomonas aeruginosa; [13]) was over 256 µg/mL. The MBC (Pseudomonas aeruginosa; [14]) was over 256 µg/mL, the MIC (Pseudomonas aeruginosa; [14]) was over 256 µg/mL and the MBC (Pseudomonas aeruginosa; [15]) was over 256 µg/mL. It also gave an MIC (Pseudomonas aeruginosa; [15]) of over 256 µg/mL, an MBC (Pseudomonas aeruginosa; [16]) of over 256 µg/mL and an MIC (Pseudomonas aeruginosa; [16]) of over 256 µg/mL. The MBC (Pseudomonas aeruginosa; [17]) was over 256 µg/mL, the MIC (Pseudomonas aeruginosa; [17]) was over 256 µg/mL and the MBC (Pseudomonas aeruginosa; [18]) was over 256 µg/mL. The MIC (Pseudomonas aeruginosa; [18]) was over 256 µg/mL, the MBC (Pseudomonas aeruginosa; [19]) was over 256 µg/mL and the MIC (Pseudomonas aeruginosa; [19]) was over 256 µg/mL. For the same compound, the MBC (Pseudomonas aeruginosa; [20]) was over 256 µg/mL, the MIC (Pseudomonas aeruginosa; [20]) was over 256 µg/mL and the MBC (Pseudomonas aeruginosa; [21]) was over 256 µg/mL. For the same compound, the MIC (Pseudomonas aeruginosa; [21]) was over 256 µg/mL, the MBC (Pseudomonas aeruginosa; [22]) was over 256 µg/mL and the MIC (Pseudomonas aeruginosa; [22]) was over 256 µg/mL. The MBC (Pseudomonas aeruginosa; [23]) was over 256 µg/mL, the MIC (Pseudomonas aeruginosa; [23]) was over 256 µg/mL and the MBC (Pseudomonas aeruginosa; [24]) was over 256 µg/mL. For the same compound, the MIC (Pseudomonas aeruginosa; [24]) was over 256 µg/mL, the MBC (Pseudomonas aeruginosa; [25]) was over 256 µg/mL and the MIC (Pseudomonas aeruginosa; [25]) was over 256 µg/mL. The MBC (Pseudomonas aeruginosa; [26]) was over 256 µg/mL, the MIC (Pseudomonas aeruginosa; [26]) was over 256 µg/mL and the MBC (Pseudomonas aeruginosa; [27]) was over 256 µg/mL. It also gave an MIC (Pseudomonas aeruginosa; [27]) of over 256 µg/mL, an MBC (Pseudomonas aeruginosa; [28]) of over 256 µg/mL and an MIC (Pseudomonas aeruginosa; [28]) of over 256 µg/mL. The MBC (Pseudomonas aeruginosa; [29]) was over 256 µg/mL, the MIC (Pseudomonas aeruginosa; [29]) was over 256 µg/mL and the MBC (Pseudomonas aeruginosa; [30]) was over 256 µg/mL. It also gave an MIC (Pseudomonas aeruginosa; [30]) of over 256 µg/mL, an MBC (Pseudomonas aeruginosa; [31]) of over 256 µg/mL and an MIC (Pseudomonas aeruginosa; [31]) of over 256 µg/mL. It also gave an MBC (Pseudomonas aeruginosa; [32]) of over 256 µg/mL, an MIC (Pseudomonas aeruginosa; [32]) of over 256 µg/mL and an MBC (Pseudomonas aeruginosa; Pseudomonas aeruginosa, read-out: MBC 50, 20 CF Pseudomonas isolates) of over 256 µg/mL. The MBC (Pseudomonas aeruginosa; Pseudomonas aeruginosa, read-out: MBC 50, second MBC 50 line of the summary, Stenotrophomonas, values equal those of the CF Pseudomonas isolates) was over 256 µg/mL.

Reference: patent publication US20100092526A1, “NANOEMULSION THERAPEUTIC COMPOSITIONS AND METHODS OF USING THE SAME” (NanoBio Corporation, priority 2008, published 2010)
